Reference: patent US20260226493A1, “HERBICIDE RESISTANT PLANTS” (SYNGENTA CROP PROTECTION AG, priority 2023, published 2026)

How the values were obtained:
Assay in all cases: BIO3-BIO1 mutant enzyme activity in the presence of herbicide, percentage inhibition (fluorometric DAPA assay)
Format in all cases: biochemical
Conditions in all cases: read-out: percentage inhibition
[1] = biological target: T1, Arabidopsis thaliana BIO3-BIO1 (BioDA) mutants (Arabidopsis thaliana, UniProt B0F481, A609T)
T1 construct: with the predicted N-terminal mitochondrial transit peptide removed; 6xHis-tag (N); thrombin cleavage site (N); made in house; host or cells: E. coli BL21 (DE3) bioA
T1 sequence (B0F481 23-833 A609T): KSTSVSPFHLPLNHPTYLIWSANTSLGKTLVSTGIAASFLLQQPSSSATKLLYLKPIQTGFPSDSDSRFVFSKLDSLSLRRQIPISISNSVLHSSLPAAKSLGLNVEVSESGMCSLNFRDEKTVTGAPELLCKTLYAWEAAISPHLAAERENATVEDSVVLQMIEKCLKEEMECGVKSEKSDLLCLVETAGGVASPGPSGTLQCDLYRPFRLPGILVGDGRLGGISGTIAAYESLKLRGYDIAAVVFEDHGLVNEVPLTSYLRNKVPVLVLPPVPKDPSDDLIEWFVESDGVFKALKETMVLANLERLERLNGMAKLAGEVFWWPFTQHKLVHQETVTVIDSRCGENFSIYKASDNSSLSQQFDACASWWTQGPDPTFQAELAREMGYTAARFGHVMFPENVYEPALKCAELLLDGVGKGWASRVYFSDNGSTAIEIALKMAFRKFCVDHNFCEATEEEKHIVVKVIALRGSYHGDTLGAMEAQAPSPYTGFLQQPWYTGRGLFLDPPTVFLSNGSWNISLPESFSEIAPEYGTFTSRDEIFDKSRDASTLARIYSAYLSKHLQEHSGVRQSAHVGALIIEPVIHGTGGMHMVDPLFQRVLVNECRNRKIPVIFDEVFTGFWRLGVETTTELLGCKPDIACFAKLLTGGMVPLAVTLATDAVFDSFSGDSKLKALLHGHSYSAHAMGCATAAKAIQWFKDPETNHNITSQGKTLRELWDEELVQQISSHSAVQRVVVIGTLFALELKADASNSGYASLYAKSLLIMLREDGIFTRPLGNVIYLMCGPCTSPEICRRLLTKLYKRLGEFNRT
In short: (§1)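 Percentage inhibition compares activity at one of three herbicide concentrations against DMSO, from o-phthalaldehyde-derivatised DAPA fluorescence (ex 410, em 470 nm). Purified N-His BIO3-BIO1 variants (50 nM, E. coli-expressed) saw herbicide 10 min at 20 °C in pH 8.6 EPPS buffer, then 20 μM KAPA plus 100 μM spermidine for 75 min at 20 °C.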

[2] = biological target: T2, Arabidopsis thaliana BIO3-BIO1 (BioDA) mutants (Arabidopsis thaliana, UniProt B0F481, F370L)
T2 construct: with the predicted N-terminal mitochondrial transit peptide removed; 6xHis-tag (N); thrombin cleavage site (N); made in house; host or cells: E. coli BL21 (DE3) bioA
T2 sequence (B0F481 23-833 F370L): as the sequence (B0F481 23-833 A609T) above, with F348L, T587A counted along it
In short: as §1

[3] = biological target: T3, Arabidopsis thaliana BIO3-BIO1 (BioDA) mutants (Arabidopsis thaliana, UniProt B0F481, G513A)
T3 construct: with the predicted N-terminal mitochondrial transit peptide removed; 6xHis-tag (N); thrombin cleavage site (N); made in house; host or cells: E. coli BL21 (DE3) bioA
T3 sequence (B0F481 23-833 G513A): as the sequence (B0F481 23-833 A609T) above, with G491A, T587A counted along it
In short: as §1

[4] = biological target: T4, Arabidopsis thaliana BIO3-BIO1 (BioDA) mutants (Arabidopsis thaliana, UniProt B0F481, P510C)
T4 construct: with the predicted N-terminal mitochondrial transit peptide removed; 6xHis-tag (N); thrombin cleavage site (N); made in house; host or cells: E. coli BL21 (DE3) bioA
T4 sequence (B0F481 23-833 P510C): as the sequence (B0F481 23-833 A609T) above, with P488C, T587A counted along it
In short: as §1

[5] = biological target: T5, Arabidopsis thaliana BIO3-BIO1 (BioDA) mutants (Arabidopsis thaliana, UniProt B0F481, Q350S)
T5 construct: with the predicted N-terminal mitochondrial transit peptide removed; 6xHis-tag (N); thrombin cleavage site (N); made in house; host or cells: E. coli BL21 (DE3) bioA
T5 sequence (B0F481 23-833 Q350S): as the sequence (B0F481 23-833 A609T) above, with Q328S, T587A counted along it
In short: as §1

[6] = biological target: T6, Arabidopsis thaliana BIO3-BIO1 (BioDA) mutants (Arabidopsis thaliana, UniProt B0F481, Q517Y)
T6 construct: with the predicted N-terminal mitochondrial transit peptide removed; 6xHis-tag (N); thrombin cleavage site (N); made in house; host or cells: E. coli BL21 (DE3) bioA
T6 sequence (B0F481 23-833 Q517Y): as the sequence (B0F481 23-833 A609T) above, with Q495Y, T587A counted along it
In short: as §1

[7] = biological target: T7, Arabidopsis thaliana BIO3-BIO1 (BioDA) mutants (Arabidopsis thaliana, UniProt B0F481, R790C)
T7 construct: with the predicted N-terminal mitochondrial transit peptide removed; 6xHis-tag (N); thrombin cleavage site (N); made in house; host or cells: E. coli BL21 (DE3) bioA
T7 sequence (B0F481 23-833 R790C): as the sequence (B0F481 23-833 A609T) above, with T587A, R768C counted along it
In short: as §1

[8] = biological target: T8, Arabidopsis thaliana BIO3-BIO1 (BioDA) mutants (Arabidopsis thaliana, UniProt B0F481, S509A)
T8 construct: with the predicted N-terminal mitochondrial transit peptide removed; 6xHis-tag (N); thrombin cleavage site (N); made in house; host or cells: E. coli BL21 (DE3) bioA
T8 sequence (B0F481 23-833 S509A): as the sequence (B0F481 23-833 A609T) above, with S487A, T587A counted along it
In short: as §1

[9] = biological target: T9, Arabidopsis thaliana BIO3-BIO1 (BioDA) mutants (Arabidopsis thaliana, UniProt B0F481, S509G)
T9 construct: with the predicted N-terminal mitochondrial transit peptide removed; 6xHis-tag (N); thrombin cleavage site (N); made in house; host or cells: E. coli BL21 (DE3) bioA
T9 sequence (B0F481 23-833 S509G): as the sequence (B0F481 23-833 A609T) above, with S487G, T587A counted along it
In short: as §1

[10] = biological target: T10, Arabidopsis thaliana BIO3-BIO1 (BioDA) mutants (Arabidopsis thaliana, UniProt B0F481, S509Q)
T10 construct: with the predicted N-terminal mitochondrial transit peptide removed; 6xHis-tag (N); thrombin cleavage site (N); made in house; host or cells: E. coli BL21 (DE3) bioA
T10 sequence (B0F481 23-833 S509Q): as the sequence (B0F481 23-833 A609T) above, with S487Q, T587A counted along it
In short: as §1

[11] = biological target: T11, Arabidopsis thaliana BIO3-BIO1 (BioDA) mutants (Arabidopsis thaliana, UniProt B0F481, S704H)
T11 construct: with the predicted N-terminal mitochondrial transit peptide removed; 6xHis-tag (N); thrombin cleavage site (N); made in house; host or cells: E. coli BL21 (DE3) bioA
T11 sequence (B0F481 23-833 S704H): as the sequence (B0F481 23-833 A609T) above, with T587A, S682H counted along it
In short: as §1

[12] = biological target: T12, Arabidopsis thaliana BIO3-BIO1 (BioDA) mutants (Arabidopsis thaliana, UniProt B0F481, Y511F)
T12 construct: with the predicted N-terminal mitochondrial transit peptide removed; 6xHis-tag (N); thrombin cleavage site (N); made in house; host or cells: E. coli BL21 (DE3) bioA
T12 sequence (B0F481 23-833 Y511F): as the sequence (B0F481 23-833 A609T) above, with Y489F, T587A counted along it
In short: as §1

Row | SMILES | inhibition at 0.2 µM [1] | inhibition at 1 µM [1] | inhibition at 5 µM [1] | inhibition at 0.2 µM [2] | inhibition at 1 µM [2] | inhibition at 5 µM [2] | inhibition at 0.2 µM [3] | inhibition at 1 µM [3] | inhibition at 5 µM [3] | inhibition at 0.2 µM [4] | inhibition at 1 µM [4] | inhibition at 5 µM [4] | inhibition at 1 µM [5] | inhibition at 1 µM [6] | inhibition at 1 µM [7] | inhibition at 1 µM [8] | inhibition at 1 µM [9] | inhibition at 1 µM [10] | inhibition at 1 µM [11] | inhibition at 1 µM [12] | further results
1 | CCn1c(Cn2ccc(C(F)(F)F)n2)cc(=O)c(C(=O)O)c1-c1ccc(Cl)c(Cl)c1 [Compound L, 2-(3,4-dichlorophenyl)-1-ethyl-4-oxo-6-[[3-(trifluoromethyl)pyrazol-1-yl]methyl]pyridine-3-carboxylic acid] |  |  |  |  |  |  |  |  |  |  |  |  |  |  |  |  |  |  |  |  | inhibition at 0.01 µM [1]: 10%; inhibition at 0.075 µM [1]: 34%; inhibition at 0.5 µM [1]: 12%; inhibition at 0.01 µM [2]: 0%; inhibition at 0.075 µM [2]: 14%; inhibition at 0.5 µM [2]: 38%; inhibition at 0.01 µM [3]: 0%; inhibition at 0.075 µM [3]: 57%; inhibition at 0.5 µM [3]: 90%; inhibition at 0.01 µM [4]: 0%; inhibition at 0.075 µM [4]: 38%; inhibition at 0.5 µM [4]: 77%; inhibition at 0.01 µM [5]: 11%; inhibition at 0.075 µM [5]: 38%; inhibition at 0.5 µM [5]: 59%
2 | CCn1c(C)c(-c2ccc(F)cc2F)c(=O)c(C(=O)O)c1-c1ccc(Cl)c(Cl)c1 [Compound C, 2-(3,4-dichlorophenyl)-5-(2,4-difluorophenyl)-1-ethyl-6-methyl-4-oxo-pyridine-3-carboxylic acid] | 12% | 37% | 64% | 19% | 24% | 82% | 10% | 63% | 88% | 13% | 53% | 78% | 35% | 86% | 11% | 63% | 53% | 82% | 0% | 67% | inhibition at 0.2 µM [5]: 2%; inhibition at 5 µM [5]: 66%; inhibition at 0.2 µM [6]: 49%; inhibition at 5 µM [6]: 97%; inhibition at 0.2 µM [7]: 0%; inhibition at 5 µM [7]: 62%; inhibition at 0.2 µM [8]: 0%; inhibition at 5 µM [8]: 95%; inhibition at 0.2 µM [9]: 20%; inhibition at 5 µM [9]: 75%; inhibition at 0.2 µM [10]: 23%; inhibition at 5 µM [10]: 99%; inhibition at 0.2 µM [11]: 0%; inhibition at 5 µM [11]: 0%; inhibition at 0.2 µM [12]: 44%; inhibition at 5 µM [12]: 90%
3 | CCn1c(-c2ccc(Cl)c(Cl)c2)c(C(=O)O)c(=O)c2cc(F)ccc21 [Compound M, 2-(3,4-dichlorophenyl)-1-ethyl-6-fluoro-4-oxo-quinoline-3-carboxylic acid] | 8% | 39% | 67% | 0% | 25% | 80% | 25% | 58% | 90% | 9% | 36% | 69% | 22% | 71% | 9% | 33% | 47% | 76% | 0% | 57% | inhibition at 0.2 µM [5]: 4%; inhibition at 5 µM [5]: 44%; inhibition at 0.2 µM [6]: 36%; inhibition at 5 µM [6]: 90%; inhibition at 0.2 µM [7]: 0%; inhibition at 5 µM [7]: 49%; inhibition at 0.2 µM [8]: 0%; inhibition at 5 µM [8]: 81%; inhibition at 0.2 µM [9]: 28%; inhibition at 5 µM [9]: 71%; inhibition at 0.2 µM [10]: 23%; inhibition at 5 µM [10]: 96%; inhibition at 0.2 µM [11]: 0%; inhibition at 5 µM [11]: 0%; inhibition at 0.2 µM [12]: 24%; inhibition at 5 µM [12]: 82%
4 | CCOC(=O)c1nn(-c2ccc3c(c2)OC(F)(F)C(F)(F)O3)c2cccc(C(C)=O)c2c1=O [Compound A, ethyl 5-acetyl-4-oxo-1-(2,2,3,3-tetrafluoro-1,4-benzodioxin-6-yl)cinnoline-3-carboxylate] |  | 0% |  |  | 15% |  |  | 64% |  |  | 20% |  | 42% | 52% | 2% | 0% | 36% | 8% | 0% | 79% | 
